Data published in patent publication US8673951B2, “Isoxazoline-substituted benzamide compound and pesticide” (priority 2005, dated 2014).

Legend:
Type in all cases: in vivo
[1] = test system: American dog tick (Dermacentor variabilis); assay: Insecticidal test against American dog tick (Test Example 20); details: 96 h, thin film in laboratory dish, 0.1 μg/cm^2 (*), protonymph, after 4 days, read-out: insecticidal rate (rate of dead insects)
Experimental: After 400 μl of acetone solution in which 4 mg of the compound of the present invention was dissolved in 40 ml of acetone (concentration 100 ppm) was coated on the bottom face and side face of two laboratory dishes having an inner diameter of 5.3 cm, acetone was vaporized to prepare a thin film of the compound of the present invention on the inner wall of the laboratory dish. As the surface area of the inner wall is 40 cm^2, the treated dosage is […]. […] A number of dead insect(s) after 4 days was counted and a rate of dead insects was calculated by the calculation equation similar to that in Test Example 1. Incidentally, the test was carried out with one district.

[2] = test system: cabbage moth (Plutella xylostella); assay: Insecticidal test against cabbage moth (Test Example 1); details: foliar, 144 h, read-out: insecticidal rate (rate of dead insects)
[3] = test system: common cutworm (Spodoptera litura); assay: Insecticidal test against common cutworm (Test Example 2); details: in Brassica oleracea, foliar, 144 h, read-out: insecticidal rate (rate of dead insects)
Experimental: A 10% emulsifiable concentrate (depending on the compounds, 10% wettable powder was applied for the test) of the compound of the present invention was diluted with water […] To the chemical solution was dipped leaves of cabbage for about 10 seconds, and after air-drying, they were placed in a laboratory dish, then 5-common cutworm (Spodoptera litura) in the stage of second instar larva per the dish were released therein, and the dish was covered with a lid and contained at a thermostat chamber at 25° C. […] Incidentally, the test was carried out with two districts.

[4] = test system: corn earworm (Helicoverpa armigera); assay: Insecticidal test against corn earworm, Comparative Example 1 (Test Example 23, Table 17); details: cabbage leaf dip, third instar larva, after 6 days
Experimental: (§1) A 10% emulsifiable concentrate of the compound of the present invention or comparative compound was diluted with water containing a spreading agent to prepare a chemical solution with a prescribed concentration. To the chemical solution was dipped leaves of cabbage for about 10 seconds, and after air-drying, they were placed in a laboratory dish, then 7-corn earworm (Helicoverpa armigera) in the stage of third instar larva per the dish were released therein, and the dish was covered with a perforated lid and contained at a thermostat chamber at 25° C. Artificial feed (1 cm^3) was added after 2 days of treatment, and a number of dead insect(s) after 6 days was counted and a rate of dead insects was calculated by the following calculation equation. In the meantime, the test was carried out with two areas. Rate of dead insects (%)=(Number of dead insects/Number of released insects)×100 The rate of dead insects in each prescribed concentration of the compounds tested is shown in Table 17.

[5] = test system: oriental tea tortix (Homona magnanima); assay: Insecticidal test against oriental tea tortix, Comparative Example 2 (Test Example 24, Table 18); details: cabbage leaf dip, third instar larva, after 6 days
Experimental: as §1, with “7-oriental tea tortix (Homona magnanima)” for “7-corn earworm (Helicoverpa armigera)”, “A” for “Artificial feed (1 cm^3) was added after 2 days of treatment, and a”, “18.” for “17.”

CC(=O)N(C(=O)c1ccc(C2=NOC(c3cc(Cl)cc(Cl)c3)(C(F)(F)F)C2)cc1C)c1ncc(Cl)cn1 (stereo not shown) [5-100, N-Acetyl-N-(5-chloro-2-pyrimidinyl)-4-[5-(3,5-dichlorophenyl)-5-trifluoromethyl-4,5-dihydroisoxazole-3-yl]-2-methyl benzoic acid amide]
pest or weed control at 0.1 µg/cm2 [1]: ≥ 80% | pest or weed control at 100 ppm [2]: ≥ 80% | pest or weed control at 100 ppm [3]: ≥ 80%

COC(=O)N(CC(F)(F)F)C(=O)c1ccc(C2=NOC(C(F)(F)F)C2c2cc(Cl)cc(Cl)c2)cc1C (stereo not shown) [Comparative Compound A, reference compound]
Rate of dead insects ([4]; 1 ppm): 0% | Rate of dead insects ([4]; 3 ppm): 0% | Rate of dead insects ([4]; 10 ppm): 28.6% | Rate of dead insects ([4]; 33 ppm): 92.9%

CON=CN(C)C(=O)c1ccc(C2=NOC(c3cc(Cl)cc(Cl)c3)(C(F)(F)F)C2)cc1C (stereo not shown) [7-003, 4-[5-(3,5-Dichlorophenyl)-5-trifluoromethyl-4,5-dihydroisoxazole-3-yl]-N-(methoxyiminomethyl)-N-methyl-2-methylbenzoic acid amide]
pest or weed control at 0.1 µg/cm2 [1]: ≥ 80%

CO/N=C\NC(=O)c1ccc(C2=NOC(c3cc(Cl)cc(Cl)c3)(C(F)(F)F)C2)cc1C (stereo not shown) [6-004, (Z)-4-[5-(3,5-Dichlorophenyl)-5-trifluoromethyl-4,5-dihydro-isoxazole-3-yl]-N-(methoxyiminomethyl)-2-methylbenzoic acid amide]
pest or weed control at 0.1 µg/cm2 [1]: ≥ 80% | pest or weed control at 10 ppm [2]: ≥ 80% | pest or weed control at 10 ppm [3]: ≥ 80%

CCON=CNC(=O)c1ccc(C2=NOC(c3cc(Cl)cc(Cl)c3)(C(F)(F)F)C2)cc1C (stereo not shown) [6-005, 4-[5-(3,5-Dichlorophenyl)-5-trifluoromethyl-4,5-dihydroisoxazole-3-yl]-N-(ethoxyimino-methyl)-2-methyl benzoic acid amide]
pest or weed control at 0.1 µg/cm2 [1]: ≥ 80% | pest or weed control at 10 ppm [2]: ≥ 80% | pest or weed control at 10 ppm [3]: ≥ 80%

Cc1cc(C2=NOC(c3cc(Cl)cc(Cl)c3)(C(F)(F)F)C2)ccc1C(=O)N(C(=O)C(C)C)c1ncc(Br)cn1 (stereo not shown) [5-122, N-(5-Bromo-2-pyrimidinyl)-4-[5-(3,5-dichlorophenyl)-5-trifluoromethyl-4,5-dihydroisoxazole-3-yl]-N-isobutyryl-2-methyl benzoic acid amide]
pest or weed control at 0.1 µg/cm2 [1]: ≥ 80% | pest or weed control at 10 ppm [2]: ≥ 80% | pest or weed control at 10 ppm [3]: ≥ 80%

CC(=O)N(C(=O)c1ccc(C2=NOC(c3cc(Cl)cc(Cl)c3)(C(F)(F)F)C2)cc1C)c1cncnc1 (stereo not shown) [5-165]
Rate of dead insects ([5]; 0.1 ppm): 14.3% | Rate of dead insects ([5]; 0.3 ppm): 57.1% | Rate of dead insects ([5]; 1 ppm): 92.9% | Rate of dead insects ([5]; 3 ppm): 100% | Rate of dead insects ([5]; 10 ppm): 100%

CCN(C(=O)c1ccc(C2=NOC(c3cc(Cl)cc(Cl)c3)(C(F)(F)F)C2)cc1C)c1ccccc1 (stereo not shown) [5-002, 4-[5-(3,5-Dichlorophenyl)-5-trifluoromethyl-4,5-dihydroisoxazole-3-yl]-N-ethyl-2-methyl benzoic acid anilide]
pest or weed control at 0.1 µg/cm2 [1]: ≥ 80% | pest or weed control at 100 ppm [2]: ≥ 80% | pest or weed control at 100 ppm [3]: ≥ 80%

Cc1cc(C2=NOC(C(F)(F)F)C2c2cc(Cl)cc(Cl)c2)ccc1C(=O)Nc1ncccn1 (stereo not shown) [Comparative Compound B, reference compound]
Rate of dead insects ([5]; 0.1 ppm): 0% | Rate of dead insects ([5]; 0.3 ppm): 0% | Rate of dead insects ([5]; 1 ppm): 7.1% | Rate of dead insects ([5]; 3 ppm): 64.3% | Rate of dead insects ([5]; 10 ppm): 100%

COC(=O)N(COC(C)=O)C(=O)c1ccc(C2=NOC(c3cc(Cl)cc(Cl)c3)(C(F)(F)F)C2)cc1C (stereo not shown) [3-033]
Rate of dead insects ([4]; 1 ppm): 7.1% | Rate of dead insects ([4]; 3 ppm): 50.0% | Rate of dead insects ([4]; 10 ppm): 100% | Rate of dead insects ([4]; 33 ppm): 100%

COCC(=O)N(C(=O)c1ccc(C2=NOC(c3cc(Cl)cc(Cl)c3)(C(F)(F)F)C2)cc1C)c1ncc(Cl)cn1 (stereo not shown) [5-106, N-(5-Chloro-2-pyrimidinyl)-4-[5-(3,5-dichlorophenyl)-5-trifluoromethyl-4,5-dihydro-isoxazole-3-yl]-N-methoxyacetyl-2-methyl benzoic acid amide]
pest or weed control at 0.1 µg/cm2 [1]: ≥ 80% | pest or weed control at 10 ppm [2]: ≥ 80% | pest or weed control at 10 ppm [3]: ≥ 80%

COC(=O)NC(=O)c1ccc(C2=NOC(c3cc(Cl)cc(Cl)c3)(C(F)(F)F)C2)cc1C (stereo not shown) [2-003, Methyl N-[4-[5-(3,5-dichlorophenyl)-5-trifluoromethyl-4,5-dihydroisoxazole-3-yl]-2-methylbenzoyl]carbamate]
pest or weed control at 0.1 µg/cm2 [1]: ≥ 80% | pest or weed control at 100 ppm [2]: ≥ 80% | pest or weed control at 100 ppm [3]: ≥ 80%
